Format in all cases: cell-based
Assay [1] deals with T1, SMARCA2 (Homo sapiens, UniProt P51531). The assay can be described thus: MSD SMARCA2 degradation in A549 cell line. The note with it: 24 h; for Dmax: A549, A549 cells; for DC50: A549 cells, read-out: SMARCA2 MSD A549 degradation 24 h: Average external-Abs DC50. Put shortly: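 A549 cells treated 24 h with compound at final 0.152-1000 nM (3-fold series, DMSO control). Lysates analyzed by MSD immunoassay using anti-SMARCA2/BRM detection and SULFO-TAG secondary antibodies; maximal degradation (Dmax %) reported as letter bins.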
T1 sequence (P51531 whole entry): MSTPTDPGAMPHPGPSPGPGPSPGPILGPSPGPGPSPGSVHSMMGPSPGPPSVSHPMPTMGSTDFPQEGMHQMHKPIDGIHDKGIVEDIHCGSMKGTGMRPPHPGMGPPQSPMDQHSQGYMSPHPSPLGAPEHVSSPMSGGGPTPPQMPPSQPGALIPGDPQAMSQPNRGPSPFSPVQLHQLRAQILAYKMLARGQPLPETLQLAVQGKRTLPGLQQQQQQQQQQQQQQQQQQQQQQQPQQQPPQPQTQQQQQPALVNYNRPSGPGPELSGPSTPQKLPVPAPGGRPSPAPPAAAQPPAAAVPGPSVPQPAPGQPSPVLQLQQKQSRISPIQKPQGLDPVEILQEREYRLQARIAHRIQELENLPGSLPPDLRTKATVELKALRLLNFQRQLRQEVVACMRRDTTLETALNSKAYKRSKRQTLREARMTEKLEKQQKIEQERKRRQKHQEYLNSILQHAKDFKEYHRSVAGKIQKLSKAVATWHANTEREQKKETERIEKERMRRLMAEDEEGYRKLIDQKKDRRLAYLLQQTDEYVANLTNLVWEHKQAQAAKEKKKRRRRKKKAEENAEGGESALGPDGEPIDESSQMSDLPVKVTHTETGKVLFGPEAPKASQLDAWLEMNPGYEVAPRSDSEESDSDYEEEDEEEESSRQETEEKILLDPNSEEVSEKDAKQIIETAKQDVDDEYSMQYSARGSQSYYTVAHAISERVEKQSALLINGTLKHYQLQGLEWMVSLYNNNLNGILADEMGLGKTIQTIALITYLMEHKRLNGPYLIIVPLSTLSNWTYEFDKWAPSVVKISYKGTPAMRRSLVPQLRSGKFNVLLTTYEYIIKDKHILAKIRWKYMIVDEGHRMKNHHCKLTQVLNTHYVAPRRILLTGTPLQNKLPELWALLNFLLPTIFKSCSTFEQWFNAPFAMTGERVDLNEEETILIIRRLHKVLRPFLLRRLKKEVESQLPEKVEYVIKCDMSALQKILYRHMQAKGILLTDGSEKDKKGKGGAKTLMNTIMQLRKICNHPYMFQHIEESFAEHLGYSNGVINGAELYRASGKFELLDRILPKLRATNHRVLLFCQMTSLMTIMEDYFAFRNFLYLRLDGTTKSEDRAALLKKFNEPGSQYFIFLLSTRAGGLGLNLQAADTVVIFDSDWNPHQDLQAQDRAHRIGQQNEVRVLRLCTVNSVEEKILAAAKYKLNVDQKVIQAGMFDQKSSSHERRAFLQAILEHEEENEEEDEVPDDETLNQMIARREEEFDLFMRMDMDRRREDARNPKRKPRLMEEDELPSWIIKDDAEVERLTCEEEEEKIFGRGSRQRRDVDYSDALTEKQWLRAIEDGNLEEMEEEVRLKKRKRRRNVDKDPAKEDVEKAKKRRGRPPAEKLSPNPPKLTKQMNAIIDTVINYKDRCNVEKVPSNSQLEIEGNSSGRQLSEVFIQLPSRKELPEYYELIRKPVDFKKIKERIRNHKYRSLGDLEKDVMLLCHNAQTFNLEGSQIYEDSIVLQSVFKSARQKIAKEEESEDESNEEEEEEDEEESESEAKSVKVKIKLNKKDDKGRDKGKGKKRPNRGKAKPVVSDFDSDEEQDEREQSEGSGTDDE

A further assay concerns the target T2, SMARCA4 (Homo sapiens, UniProt P51532).
T2 construct: SMARCA2 and SMARCA4 protein degradation in MV4-11 cells; endogenous in cells; host or cells: MV4-11
Description: SMARCA4 Western blot MV4-11 degradation. Particulars: 24 h; for Dmax: MV4-11, MV4-11 cells, read-out: SMARCA4 WB MV411 degradation 24 h: Average Dmax %; for DC50: MV4-11 cells, read-out: SMARCA4 WB MV411 degradation 24 h: Average external-Abs DC50. As to the method: Cells were seeded into 6-well plates (MV4-11: 4×10^6 cells/well/1 ml) and 1 ml of 2× compound solution was added into the well to make the final concentration and the plates were mixed well and incubated for 24 hours (No cytotoxicity was observed). The cell were collected with media and spun at 3000 rpm for 5 minutes. The supernatant was aspirated and the well and the cells were washed with cold PBS once and combined for centrifugation again; the supernatant aspirated again. 200 ul pre-chilled RIPAlysis buffer (Boston BioProducts BP-115D) with protease/phosphatase inhibitor (Roche 05892791001/Roche 04906837001) was directly added into the tube to lyze the cells for 20 minutes on ice. The cell lysate were collected into EP tubes and spun at 13000 rpm for 20 minutes and 72 ul supernatant was transferred to a fresh EP tube containing 18 ul of 5× loading buffer (Beyotime Bio P0015) to make the loading samples. The samples were heated to 100° C. for 10 minutes and cooled to RT and microcentrifuged. 20 ul of samples were loaded onto SDS-PAGE gel (Novex, WG1402BOX) and the gel was run at 80 V for 20 minutes and 120 V for 1.5 hours. The samples were electrotransfer to a NC membrane using wet-transfer method with 250 mA for 2.5 hours. The membrane was blocked with LICOR blocking buffer (LI-COR, 927-50000) for 1 hour. The membrane was washed three times with TBST (CST #9997S), 5 minutes each. Incubation was performed with primary antibody prepared in blocking buffer with 0.1% Tween-20 (Solarbio, P8220) at 4° C. overnight (Anti-SMARCA2/BRM antibody (ab15597) 1:500; Anti-BRG1 antibody [EPR3912] (ab108318) 1:1000; Rabbit anti-Baf180 antibody [EPR15860] (Abcam, ab196022) 1:1000; mouse anti-beta-Actin (8H10D10) (CST #3700) 1:10000). The membrane was washed three times with TBST, 5 minutes each. Incubation with secondary antibody was performed for 1 hour at RT (anti-rabbit IgG (Licor, 926-32211) 1:5000; anti-mouse IgG (LI-COR, 926-68070) 1:5000). The membrane was washed three times with TBST, 5 minutes each and lastly the LiCOR was read.
The letter codes for the percentage of SMARCA degradation after 24 hours (Dmax %) include: A (>90% degradation), B (>70-90% degradation), C (50-70% degradation), and D (<50% degradation).
Background: A western blot detects proteins with antibodies after separation by electrophoresis.

For assay [2], the target named is T1, SMARCA2. Description: MSD SMARCA2 degradation in NCI-H1299 cell line (24 h). More on the design: HC: NCI-H1299 cells treated with DMSO; host or cells: NCI-H1299. The note with it: for Dmax: NCI-H1299, NCI-H1299 cells; for DC50: NCI-H1299 cells, read-out: SMARCA2 MSD H1299 degradation 24 h: External Abs-DC50. In short, it runs like this: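 NCI-H1299 cells treated 24 h with a 3-fold, 9-point compound dilution series, then lysed in RIPA with protease inhibitor. SMARCA2 in lysate-coated MSD plates detected with rabbit anti-SMARCA2 (0.3 ug/ml) and SULFO-TAG secondary. Relative SMARCA2 level normalized between DMSO-treated H1299 cells and SMARCA2-negative A2780 cells; Dmax % binned A–D.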

Molecules are shown by their SMILES.

T2 sequence (P51532 whole entry): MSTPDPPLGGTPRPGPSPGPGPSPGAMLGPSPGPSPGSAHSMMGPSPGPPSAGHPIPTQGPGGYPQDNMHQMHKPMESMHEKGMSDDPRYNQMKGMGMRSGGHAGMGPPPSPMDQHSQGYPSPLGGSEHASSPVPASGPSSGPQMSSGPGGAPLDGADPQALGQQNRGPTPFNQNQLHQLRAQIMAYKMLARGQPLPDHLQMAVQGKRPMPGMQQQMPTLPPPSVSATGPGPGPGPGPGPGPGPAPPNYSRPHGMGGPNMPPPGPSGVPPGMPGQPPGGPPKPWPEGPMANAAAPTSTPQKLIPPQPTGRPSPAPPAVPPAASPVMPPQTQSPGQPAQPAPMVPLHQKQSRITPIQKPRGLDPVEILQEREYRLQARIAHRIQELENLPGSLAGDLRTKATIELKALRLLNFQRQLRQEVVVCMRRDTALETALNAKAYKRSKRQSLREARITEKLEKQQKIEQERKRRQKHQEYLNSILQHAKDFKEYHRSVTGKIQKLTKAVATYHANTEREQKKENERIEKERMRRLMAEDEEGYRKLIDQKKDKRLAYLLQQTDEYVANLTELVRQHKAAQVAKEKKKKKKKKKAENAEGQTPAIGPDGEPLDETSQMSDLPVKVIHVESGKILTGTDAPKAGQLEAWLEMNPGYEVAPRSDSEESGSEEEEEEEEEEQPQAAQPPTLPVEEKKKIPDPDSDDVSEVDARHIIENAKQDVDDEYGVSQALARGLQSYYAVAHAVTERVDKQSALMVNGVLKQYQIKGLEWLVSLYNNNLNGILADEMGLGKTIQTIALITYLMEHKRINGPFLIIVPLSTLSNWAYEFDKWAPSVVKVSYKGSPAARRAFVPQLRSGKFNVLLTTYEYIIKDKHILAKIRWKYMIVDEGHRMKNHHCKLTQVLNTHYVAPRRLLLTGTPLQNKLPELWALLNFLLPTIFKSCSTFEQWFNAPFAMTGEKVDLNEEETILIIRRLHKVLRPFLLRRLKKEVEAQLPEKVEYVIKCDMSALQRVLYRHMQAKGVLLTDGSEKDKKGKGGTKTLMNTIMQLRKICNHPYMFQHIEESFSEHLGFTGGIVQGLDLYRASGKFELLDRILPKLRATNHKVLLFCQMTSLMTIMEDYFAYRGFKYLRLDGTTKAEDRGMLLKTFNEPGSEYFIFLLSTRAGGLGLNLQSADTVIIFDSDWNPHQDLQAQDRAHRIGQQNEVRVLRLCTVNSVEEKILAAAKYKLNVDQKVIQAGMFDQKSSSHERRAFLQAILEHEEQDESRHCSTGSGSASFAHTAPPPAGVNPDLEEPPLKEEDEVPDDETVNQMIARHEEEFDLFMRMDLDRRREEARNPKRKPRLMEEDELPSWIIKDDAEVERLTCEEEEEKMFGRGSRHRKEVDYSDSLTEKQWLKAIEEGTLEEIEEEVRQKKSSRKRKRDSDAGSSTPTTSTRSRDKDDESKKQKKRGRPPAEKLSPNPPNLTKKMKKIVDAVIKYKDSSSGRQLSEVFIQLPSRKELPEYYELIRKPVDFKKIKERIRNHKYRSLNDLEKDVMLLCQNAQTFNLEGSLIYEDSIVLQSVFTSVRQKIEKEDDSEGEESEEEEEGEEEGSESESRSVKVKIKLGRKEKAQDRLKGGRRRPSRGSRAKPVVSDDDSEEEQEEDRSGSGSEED

The term Dmax denotes the largest share of the target that was removed. Broadly, the DC50 is the midpoint of the concentration-degradation curve. Take `Cc1ncsc1-c1ccc(CNC(=O)[C@@H]2C[C@@H](O)CN2C(=O)[C@@H](NC(=O)CCCCN2CCC(c3cnc(N4C5CCC4CN(c4cc(-c6ccccc6O)nnc4N)C5)nc3)CC2)C(C)(C)C)cc1` [I-383]: on SMARCA2 [1], the Dmax is less than 50% and the DC50 was greater than 1000 nM. On SMARCA4, the Dmax was greater than 90% and the DC50 is greater than 1000 nM.

As for `Nc1nnc(-c2ccccc2O)cc1-c1cnn(C2CCN(C3CCC(CNc4cccc5c4C(=O)N(C4CCC(=O)NC4=O)C5=O)CC3)CC2)c1` (stereo not shown) [I-324], the Dmax at SMARCA2 [1] and on SMARCA4 was 70 to 90% each time. Further, the DC50 on SMARCA2 [1] and on SMARCA4 was less than 100 nM throughout.

As for `Cc1ncsc1-c1ccc(CNC(=O)[C@@H]2C[C@@H](O)CN2C(=O)[C@@H](NC(=O)c2ccc(-c3ccc(CN4CCC(Cn5cc(-c6cc(-c7ccccc7O)nnc6N)cn5)CC4)cc3)cc2)C(C)(C)C)cc1` [I-507], on SMARCA2 [1], the Dmax is greater than 90% and the DC50 was less than 100 nM. Further, at SMARCA4, the Dmax is greater than 90% and the half-maximal degradation concentration (DC50) is less than 100 nM.

Take `Cc1ncsc1-c1ccc(CNC(=O)[C@@H]2C[C@@H](O)CN2C(=O)[C@@H](NC(=O)N2CCN(Cc3cnc(N4C5CCC4CN(c4cc(-c6ccccc6O)nnc4N)C5)nc3)CC2)C(C)(C)C)cc1` [I-339]: at SMARCA2 [1], the Dmax was 70 to 90% and the DC50 was in the range of 100 to 500 nM. Further, on SMARCA4, the Dmax was greater than 90% and the DC50 is less than 100 nM.

`Cc1ncsc1-c1ccc(CNC(=O)[C@@H]2C[C@@H](O)CN2C(=O)[C@@H](NC(=O)C2CCC(N3CCC(n4cc(-c5cc(-c6ccccc6O)nnc5N)cn4)CC3)CC2)C(C)(C)C)cc1` (stereo partly shown) [I-483]: at SMARCA2 [1], the Dmax was in the range of 70 to 90% and the DC50 is 100 to 500 nM. For the same molecule, at SMARCA4, the greatest degradation seen (Dmax) was less than 50% and the DC50 is greater than 1000 nM.

With `Cc1ncsc1-c1ccc(CNC(=O)[C@@H]2C[C@@H](O)CN2C(=O)[C@@H](NC(=O)N2CCC(N3CCC(c4cnc(N5C6CCC5CN(c5cc(-c7ccccc7O)nnc5N)C6)nc4)CC3)CC2)C(C)(C)C)cc1` [I-350, 4-(2-(3-(3-amino-6-(2-hydroxyphenyl)pyridazin-4-yl)-3,8-diazabicyclo [3.2.1]octan-8-yl)pyrimidin-5-yl)-N—((S)-1-((2S,4R)-4-hydroxy-2-((4-(4-methylthiazol-5-yl)benzyl)carbamoyl)pyrrolidin-1-yl)-3,3-dimethyl-1-oxobutan-2-yl)-[1,4′-bipiperidine]-1′-carboxamide], at SMARCA2 [1], the Dmax was less than 50% and the DC50 is greater than 1000 nM. On SMARCA4, the Dmax is less than 50% and the DC50 was greater than 1000 nM.

Consider `Cc1ncsc1-c1ccc(CNC(=O)[C@@H]2C[C@@H](O)CN2C(=O)[C@@H](NC(=O)CCCN2CCC(c3cnc(N4C5CCC4CN(c4cc(-c6ccccc6O)nnc4N)C5)nc3)CC2)C(C)(C)C)cc1` [I-382], for which, at SMARCA2 [1], the Dmax was less than 50% and the DC50 was greater than 1000 nM. In addition, at SMARCA4, the Dmax was less than 50% and the DC50 is greater than 1000 nM.

As for `Cc1ncsc1-c1ccc(CNC(=O)[C@@H]2C[C@@H](O)CN2C(=O)[C@@H](NC(=O)CCCC#Cc2cnc(N3C4CCC3CN(c3cc(-c5ccccc5O)nnc3N)C4)nc2)C(C)(C)C)cc1` [I-341], at SMARCA2 [1], the greatest degradation seen (Dmax) was greater than 90% and the DC50 is 100 to 500 nM. In addition, on SMARCA4, the maximal degradation (Dmax) is greater than 90% and the DC50 is less than 100 nM.

As to `Cc1ncsc1-c1ccc(CNC(=O)[C@@H]2C[C@@H](O)CN2C(=O)[C@@H](NC(=O)[C@H]2C[C@H](N3CCC(n4cc(-c5cc(-c6ccccc6O)nnc5N)cn4)CC3)C2)C(C)(C)C)cc1` [I-359], on SMARCA2 [1], the Dmax is less than 50% and the DC50 is greater than 1000 nM. On SMARCA4, the Dmax was less than 50% and the 50% degradation concentration (DC50) is greater than 1000 nM.

As for `Cc1ncsc1-c1ccc(CNC(=O)[C@@H]2C[C@@H](O)CN2C(=O)[C@@H](NC(=O)CCN2CCC[C@H](Cn3cc(-c4cc(-c5ccccc5O)nnc4N)cn3)C2)C(C)(C)C)cc1` [I-478], on SMARCA2 [1], the Dmax is less than 50% and the DC50 is greater than 1000 nM. At SMARCA4, the Dmax is less than 50% and the DC50 was greater than 1000 nM.

As to `Cc1ncsc1-c1ccc(CNC(=O)[C@@H]2C[C@@H](O)CN2C(=O)[C@@H](NC(=O)c2ccc(CN3CCC(c4cnc(N5C6CCC5CN(c5cc(-c7ccccc7O)nnc5N)C6)nc4)CC3)cc2)C(C)(C)C)cc1` [I-348], on SMARCA2 [1], the Dmax was greater than 90% and the DC50 is less than 100 nM. On SMARCA4, the Dmax is greater than 90% and the DC50 was less than 100 nM.

`Nc1nnc(-c2ccccc2O)cc1-c1cnn(C2CCN([C@H]3CC[C@H](CNc4ccc5c(c4)C(=O)N(C4CCC(=O)NC4=O)C5=O)CC3)CC2)c1` (stereo partly shown) [I-325, 5-((((1r,4r)-4-(4-(4-(3-amino-6-(2-hydroxyphenyl)pyridazin-4-yl)-1H-pyrazol-1-yl)piperidin-1-yl)cyclohexyl)methyl)amino)-2-(2,6-dioxopiperidin-3-yl)isoindoline-1,3-dione]: on SMARCA2 [1], the Dmax is 70 to 90% and the DC50 is less than 100 nM. For the same molecule, at SMARCA4, the Dmax was 70 to 90% and the DC50 was less than 100 nM.

As to `Cc1ncsc1-c1ccc(CNC(=O)[C@@H]2C[C@@H](O)CN2C(=O)[C@@H](NC(=O)Cc2ccc(N3CCC(c4cnc(N5C6CCC5CN(c5cc(-c7ccccc7O)nnc5N)C6)nc4)CC3)cc2)C(C)(C)C)cc1` [I-513], at SMARCA2 [1], the Dmax fell in the range of 70 to 90% and the DC50 is 501 to 1000 nM. Besides, at SMARCA4, the Dmax fell in the range of 70 to 90% and the half-maximal degradation concentration (DC50) lay within 100 to 500 nM.

Turning to `Cc1ncsc1-c1ccc(CNC(=O)[C@@H]2C[C@@H](O)CN2C(=O)[C@@H](NC(=O)CCCN2CCCC(n3cc(-c4cc(-c5ccccc5O)nnc4N)cn3)C2)C(C)(C)C)cc1` (stereo partly shown) [I-454], on SMARCA2 [1], the Dmax was less than 50% and the DC50 was greater than 1000 nM. In addition, at SMARCA4, the Dmax is less than 50% and the DC50 was greater than 1000 nM.

Consider `Cc1ncsc1-c1ccc(CNC(=O)[C@@H]2C[C@@H](O)CN2C(=O)[C@@H](NC(=O)C2CCN(Cc3cnc(N4C5CCC4CN(c4cc(-c6ccccc6O)nnc4N)C5)nc3)CC2)C(C)(C)C)cc1` [I-338], for which, on SMARCA2 [1], the Dmax is greater than 90% and the DC50 was 100 to 500 nM. At SMARCA4, the Dmax was greater than 90% and the DC50 was less than 100 nM.

With `Cc1ncsc1-c1ccc(CNC(=O)[C@@H]2C[C@@H](O)CN2C(=O)[C@@H](NC(=O)Cc2ccc(-c3cnc(N4C5CCC4CN(c4cc(-c6ccccc6O)nnc4N)C5)nc3)cc2)C(C)(C)C)cc1` [I-335], on SMARCA2 [1], the Dmax is greater than 90% and the DC50 was less than 100 nM. Moreover, at SMARCA4, the Dmax is greater than 90% and the DC50 was less than 100 nM.

With `Cc1ncsc1-c1ccc(CNC(=O)[C@@H]2C[C@@H](O)CN2C(=O)[C@@H](NC(=O)c2ccc(N3CCC(n4cc(-c5cc(-c6ccccc6O)nnc5N)cn4)CC3)cc2)C(C)(C)C)cc1` [I-515], on SMARCA2 [1], the Dmax was less than 50% and the DC50 is greater than 1000 nM. Besides, at SMARCA4, the Dmax was greater than 90% and the DC50 was less than 100 nM.

Take `Cn1c(=O)n(C2CCC(=O)NC2=O)c2ccc(CCCCNC(=O)Cc3cnc(N4C5CCC4CN(c4cc(-c6ccccc6O)nnc4N)C5)nc3)cc21` (stereo not shown) [I-296]: on SMARCA4, the Dmax fell in the range of 70 to 90% and the DC50 is less than 100 nM. On SMARCA2 [2], the Dmax is greater than 90% and the DC50 is less than 100 nM.

On to `Cc1ncsc1-c1ccc(CNC(=O)[C@@H]2C[C@@H](O)CN2C(=O)[C@@H](NC(=O)CCCCN2CCC[C@@H](Cn3cc(-c4cc(-c5ccccc5O)nnc4N)cn3)C2)C(C)(C)C)cc1` [I-472], for which, at SMARCA4, the Dmax was in the range of 50 to 70% and the DC50 lay in the range of 100 to 500 nM. Further, on SMARCA2 [2], the Dmax was less than 50% and the DC50 was 100 to 500 nM.

For the origin of these results see patent publication US12624044B2, “SMARCA degraders and uses thereof” (Kymera Therapeutics, Inc., priority 2019, dated 2026).
